The text below walks through data of patent publication US10314851B2, “Metakaryocidal treatments” (Massachusetts Institute of Technology, priority 2014, dated 2019).

The subject of this test is HT-29 cells. An excerpt:
Applicants next sought means to test nominated drugs (also referred to herein as candidate agents) using human cell cultures, particularly cell cultures derived from human tumors in which they discovered metakaryotic cells driving net growth and differentiation of such cultures by symmetric and asymmetric amitotic divisions.
The metakaryotic and pre-metakaryotic cells of cell lines derived from human tumors are capable of unlimited division when plated as single cells on plastic or glass surfaces. However, most cells in such cell lines are eukaryotic cells capable of limited cell growth which growth cannot give rise to immortal colonies or populations of cells. This quality permits the line to be used in quantitative assays of cell killing important for distinguishing among agents and regimens that kill metakaryotic cells in preference to eukaryotic cells and vice versa.
Single cells betray different fates. […] Applicants interpret these colonies and derived immortal populations to be the descendants of single metakaryotic or pre-metakaryotic stem cells.
Colonies of limited size between 1 and 2^11 cells are interpreted to be the products of growth of transition cell tiers three through eleven.
In this reproducible behavior the human tumor cell lines offered a means to test agents for metakaryocidal activity: metakaryocidal agents and regimens would reduce or eliminate the appearance of large colonies that could be propagated by serial trypsinized transfer. […] An example of this kind of assay is illustrated in FIGS. 1, 2 and 3.
In particular drugs evaluated were reported to overcome “multidrug resistance” giving special priority to drugs that suppressed “multidrug resistance” (MDR).
Shown in FIGS. 1-3 are images of quantitative trials of different regimens (initial concentration, duration of exposure) of metformin in clonal assays using HT-29 cells. […] FIG. 1 is a photograph illustrating the experimental design for testing metformin as a metakaryocide in vitro.
FIG. 2 depicts a table of the recorded colony counts on each of the flasks of the first image.
The Y-axis is the number of colonies on each test flask enumerated in FIG. 2 while the X-axis is the product of metformin concentration (micromolar) times the duration of the HT-29 cells to the drug (weeks).

Where two headings read alike, the source gives them in different places. A value given as a limit tells only on which side of the number the result lay.

As to `CN(C)C(=N)N=C(N)N` [metformin], the “concentration above which surviving large colonies are not immortal and do not contain metakaryotic stem cells” value by setting is: (HT-29, FIG. 1, five weeks) > 100 µM; (HT-29, one week exposure) > 1600 µM. For the same compound, the “concentration x duration of exposure at which elimination of metakaryotic cell-containing immortal colonies is reached” value (HT-29, FIG. 3) is listed as ~200 micromolar-weeks. Also, the “concentration x duration of exposure below which killing of mortal colonies is not observed” value (HT-29, FIG. 3) is given as “about 2000 micromolar weeks”. Besides, the “survival fraction of the metformin-sensitive population (metakaryotic cells)” value (HT-29, at ~200 μM weeks) was 10^−2. For the same compound, the “total large colony numbers reduced to a level less than in untreated control flasks” value (HT-29, colonies five weeks after seeding, treated from day one for one, two or five weeks, concentration x duration treatments shown with green counts in FIG. 2) is on record as “about 10%”. Also, the “concentration at which surviving large colonies are not immortal and do not contain metakaryotic stem cells” value (HT-29, five weeks exposure) was 800 µM. Moreover, for the setting “extrapolated from FIG. 3, treatment of ~400 μM weeks”, the “expected survival of metakaryotic cells” value is on record as 10^−4.
For `COC(=O)[C@H]1[C@H]2C[C@@H]3c4[nH]c5cc(OC)ccc5c4CCN3C[C@H]2C[C@@H](OC(=O)c2cc(OC)c(OC)c(OC)c2)[C@@H]1OC` [reserpine], the “metakaryocidal effect (survival vs. concentration x duration function)” value (tests of some sixteen drugs, compared with metformin) is “no detectable effect as a metakaryocide”.
